In US6545050B1, “Aryl sulphonamide amino acid esters and analogues” (Bayer Aktiengesellschaft, priority 1998, dated 2003):
Counter-ions that a name gives are not always drawn.

Assays:
rat CB1 receptor = target: T1, rat CB1 receptor (Rattus norvegicus, UniProt P20272); test: CB1 luciferase reporter gene test (CHOluc9 cells stably transfected with rat CB1); assay type: cell-based; details: forskolin stimulated
T1 construct: contains an open reading frame of 1419 base pairs which corresponds to a protein of 473 amino acids; expressed in transfected cells; host or cells: CHOluc9 reporter cells stably transfected with plasmid CMV-RH (rat CB1 cDNA in pRc/CMV)
T1 sequence (P20272 whole entry): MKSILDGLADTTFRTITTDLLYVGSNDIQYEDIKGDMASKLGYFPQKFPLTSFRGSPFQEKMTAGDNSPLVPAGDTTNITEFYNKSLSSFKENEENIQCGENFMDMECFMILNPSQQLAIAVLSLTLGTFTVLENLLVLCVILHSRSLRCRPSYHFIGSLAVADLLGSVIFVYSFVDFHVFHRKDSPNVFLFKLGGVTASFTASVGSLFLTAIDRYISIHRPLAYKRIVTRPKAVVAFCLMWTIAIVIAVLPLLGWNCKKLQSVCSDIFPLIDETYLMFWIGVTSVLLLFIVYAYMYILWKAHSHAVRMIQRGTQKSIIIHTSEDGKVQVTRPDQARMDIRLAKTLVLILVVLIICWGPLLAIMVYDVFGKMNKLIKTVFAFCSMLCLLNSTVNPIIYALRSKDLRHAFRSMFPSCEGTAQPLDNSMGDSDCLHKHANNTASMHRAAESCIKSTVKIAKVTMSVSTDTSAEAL
Experimental: CB1—Luciferase Reporter Gene Test
1. Cloning of the Rat Cannabinoid Receptor CB1
Total RNA from rat brain (the tissue was taken from freshly killed animals and shock-frozen in liquid nitrogen) was isolated by acidic guanidinium thiocyanate/phenol/chloroform extraction (J. Biol. Chem. 1979, 18, 5294) and converted into cDNA by means of reverse transcriptase and random primers (in each case from Invitrogen). The polymerase chain reaction (PCR, conditions: 4 min 94° C., 1H; 1 min 94° C.; 2 min 53° C.; 1 min 72° C., 50 cycles; 1 min 94° C., 2 min 53° C., 4 min 72° C., 1H) was carried out in a Perkin Elmer thermocycler using the enzyme Taq polymerase (Perkin Elmer); the oligonucleotide primers employed (bases 99 to 122: 5′63′, “down”; 1556-1575: 3′75′, “up”) were derived from the published sequence of the rat cannabinoid receptor (Nature 1990, 346, 561) and were synthesized on a DNA synthesizer, model 1380 from Applied Biosystems. One part of the PCR reaction was separated in a 1% strength agarose gel in 1H TBE buffer and then stained with ethidium bromide, only one band having the expected length being visible (approximately 1.5 kb). This PCR product was subcloned into the TA cloning vector (Invitrogen) and the nucleotide sequence of the insert was determined by the dideoxynucleotide chain termination reaction using T7DNA polymerase (Sequenase, USA/Amersham). The insert has a length of 1477 base pairs and contains an open reading frame of 1419 base pairs which corresponds to a protein of 473 amino acids. The number of base pairs, the position of the open reading frame and the number of amino acids agree with the published sequence. Computer analyses were carried out with the aid of the GCG software suite (Genetic Computer Group). The cDNA insert was subcloned into the expression vector pRc/CMV (Invitrogen) after partial digestion with HindIII and NotI (Biolabs). This construct (plasmid CMV-RH) was employed for transfection experiments.
2. Stable Transfection of the CHOluc9 Reporter Cells
CHOluc9 cells were cultured in 50% Dulbecco's modified Eagle medium/50% F-12 (DMEM/F12) which contained 10% foetal calf serum (FCS). Transfections were prepared in 6-well plates. 7.5 μg of Qiagen-purified CMV-RH plasmid DNA were added per […] with the DOTAP transfection system, corresponding to the experimental protocol of the manufacturer (Boehringer Mannheim). Transfected cells were selected using 1 mg/ml G418 and individual clones were obtained by limiting dilution in 96-well plates. Cell lines which express the cannabinoid receptor were identified for the inhibition of reporter gene expression after incubation with the cannabinoid receptor agonist, WIN-55,212-2, in the presence of forskolin. Several stably transfected and subcloned cell lines were further characterized by means of RT-PCR, as described under 1.
3. Test Optimization and Pharmacological Characterization of the CHOCB1 Reporter Cell Line
With the aim of high sensitivity and reproducibility, low variance and high suitability for carrying out on the robotic system, the luciferase test was optimized by variation of several test parameters, such as, for example, cell density, duration of the growth phase and the test incubation, forskolin concentration, medium composition. The following test protocol was used for pharmacological characterization of the cells and for robot-assisted substance screening: the stock cultures were cultured in 50% Dulbecco's modified Eagle medium/50% F-12 (DMEM/F12) with 10% FCS at 37° C. under 10% CO2 and in each case split 1:10 after 2 to 3 days. Test cultures were inoculated into 96-well plates at 5000 cells per well and cultured at 37° C. for 70 hours. The cultures were then carefully washed with phosphate-buffered saline and reconstituted using serum-free ultra-CHO medium (Bio-Whittaker). The substances dissolved in DMSO were diluted 1H in medium and pipetted into the test cultures (maximum DMSO final concentration in the test batch: 0.5%). […]

[1] = Solubility determination by precipitation method in physiological saline; assay type: physicochemical; details: saline or isotonic, kinetic from dmso stock, 25° C., shaken 1 hour, HPLC
Experimental: To determine the solubility, a precipitation method was used:
10 mg of the test substance are completely dissolved in 50 μl of DMSO (stock solution). From this solution, 20 μl are added to 2000 μl of physiological saline. This solution in turn is shaken at 25° C. in a Thermomixer Comfort (from Eppendorf) at 1400 rpm for 1 hour, for equilibration.
The precipitated fractions of the test substance are centrifuged off at 14,000 rpm for 5 min, using a Biofuge 15 from Heraeus. 1300 μl of the supernatant are again centrifuged using a Microfuge from Beckmann, at 45,000 rpm=125,000 g.
10 μl of this centrifugation supernatant are then diluted with 1000 μl of DMSO, and this solution is measured by HPLC. (Hewlett Packard 1090, method: gradient of 100% PBS buffer pH=4 over 15 min to 10% buffer/90% acetonitrile, column: RP18)
The measured peak area of the HPLC determination is converted into the substance concentration using a calibration curve. For the calibration curve, 20 μl of the stock solution are successively diluted with DMSO in such a manner that 5 concentrations of from 2.5 mg/l to 2000 mg/l are obtained. These solutions are likewise measured by HPLC (method see above) and the peak areas are plotted against the concentrations.

rats = test: Rat hypothermia - agonism testing; assay type: in vivo; details: i.v. administration
Experimental: Five minutes after determination of the basal body temperature via an oesophageal temperature probe, the test substance is administered (i.v.). A control group receives only the solvent of the test substances, likewise i.v. The body temperature is measured 7.5, 15, 30 and 60 minutes after i.v. administration. The group size per dose is 5-7 animals (rats).

Compound `CC(C)(C)OC(=O)NCC(=O)OC[C@@H]1Cc2cccc(Oc3cccc(OS(=O)(=O)CCCC(F)(F)F)c3)c2C1` [Example 1, (R)-3-[2-(N-tert-butyloxycarbonylglycinyl)-oxymethyl-indanyl-4-oxy]-phenyl 4,4,4-trifluoro-1-butanesulphonate] has an IC50 (rat CB1 receptor) of 0.35 nM.
`CC(C)(C)OC(=O)NCCCCCCC(=O)OC[C@@H]1Cc2cccc(Oc3cccc(OS(=O)(=O)CCCC(F)(F)F)c3)c2C1` [Example 2, (R)-3-[2-(7-N-tert-Butyloxycarbonylaninoheptanoyloxymethyl)-indanyl-4-oxy]-phenyl 4,4,4-trifluoro-1-butanesulphonate] gave an IC50 (rat CB1 receptor) of 0.13 nM.
In the case of `NCC(=O)OC[C@@H]1Cc2cccc(Oc3cccc(OS(=O)(=O)CCCC(F)(F)F)c3)c2C1` [Example 5, (R)-3-(2-Glycinyl-oxymethyl)-indanyl-4-oxy)-phenyl 4,4,4-trifluoro-1-butanesulphonate hydrochloride], the solubility at 1 h [1] is reported as 720 µg/mL, the IC50 (rat CB1 receptor) is reported as 0.11 nM and the “ED−1° C. (effective dose for 1° C. body temperature reduction)” value (rats) is reported as 0.03 mg/kg.
In the case of `NCCCCCCC(=O)OC[C@@H]1Cc2cccc(Oc3cccc(OS(=O)(=O)CCCC(F)(F)F)c3)c2C1` [Example 6, (R)-3-[2-(7-Aminoheptanoyloxymethyl)-indanyl-4-oxy)-phenyl 4,4,4-trifluoro-1-butanesulphonate hydrochloride], the IC50 (rat CB1 receptor) is reported as 0.85 nM.
For `NCCC(=O)OC[C@@H]1Cc2cccc(Oc3cccc(OS(=O)(=O)CCCC(F)(F)F)c3)c2C1` [Example 7, (R)-3-[2-(3-Aminopropanoyloxymethyl)-indanyl-4-oxy)-phenyl 4,4,4-trifluoro-1-butanesulphonate hydrochloride], the IC50 (rat CB1 receptor) was 0.4 nM.
Work on `CC(C)[C@H](N)C(=O)OC[C@@H]1Cc2cccc(Oc3cccc(OS(=O)(=O)CCCC(F)(F)F)c3)c2C1` [Example 8, (R)-3-[2-((S)-Valinyloxymethyl)-indanyl-4-oxy]-phenyl 4,4,4-trifluoro-1-butanesulphonate hydrochloride] yielded an IC50 (rat CB1 receptor) of 0.2 nM.
